Experimental data as given in the supplement of paper PMC10307832.

Key:
Assay in all cases: relative viability (nuclei count vs DMSO), 5 days (fraction); higher = more cells survive
NCI-H2170 = tested on: NCI-H2170
Procedure, shortened: (§1)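 Five library-drug doses in √10 steps were combined with a fixed anchor-drug dose, or a single drug was given alone, by pin tool to lung cancer cell lines in 1536-well plates the day after seeding. Nuclei were stained and counted after 5 days. Relative viability is the nuclei count in treated wells over that in vehicle wells, taken as the median of duplicate plates.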

HCC-15 = tested on: HCC-15
Procedure, shortened: as §1

NCI-H838 = tested on: NCI-H838
Procedure, shortened: as §1

NCI-H1993 = tested on: NCI-H1993
Procedure, shortened: as §1

HOP-62 = tested on: HOP-62
Procedure, shortened: as §1

NCI-H1355 = tested on: NCI-H1355
Procedure, shortened: as §1

NCI-H2347 = tested on: NCI-H2347
Procedure, shortened: as §1

HARA = tested on: HARA
Procedure, shortened: as §1

COR-L 105 = tested on: COR-L 105
Procedure, shortened: as §1

NCI-H358 = tested on: NCI-H358
Procedure, shortened: as §1

NCI-H1734 = tested on: NCI-H1734
Procedure, shortened: as §1

Question: Which relative viability (NCI-H2170; first compound 0.002 µM) does the source give for `CC(=O)O[C@@]12CO[C@@H]1C[C@H](O)[C@@]1(C)C(=O)[C@H](O)C3=C(C)[C@@H](OC(=O)[C@H](O)[C@@H](NC(=O)OC(C)(C)C)c4ccccc4)C[C@@](O)([C@@H](OC(=O)c4ccccc4)[C@H]21)C3(C)C` [Docetaxel] + CS(=O)(=O)CCNCc1ccc(-c2ccc3ncnc(Nc4ccc(OCc5cccc(F)c5)c(Cl)c4)c3c2)o1 [Lapatinib] (partner 2 µM) here?
Answer: 0.194

Question: What about the relative viability (NCI-H2170; first compound 0.006325 µM) of the same compound?
Answer: 0.224

Question: What about the relative viability (NCI-H2170; first compound 0.02 µM) of the same compound?
Answer: 0.184

Question: What about the relative viability (HCC-15; first compound 0.0002 µM) of the same compound?
Answer: 0.681

Question: And the relative viability (HCC-15; first compound 0.000632 µM)?
Answer: 0.372

Question: What about the relative viability (HCC-15; first compound 0.002 µM) of the same compound?
Answer: 0.208

Question: And the relative viability (HCC-15; first compound 0.006325 µM)?
Answer: 0.195

Question: And the relative viability (HCC-15; first compound 0.02 µM)?
Answer: 0.137

Question: What about the relative viability (NCI-H838; first compound 0.0002 µM) of the same compound?
Answer: 0.963

Question: And the relative viability (NCI-H838; first compound 0.000632 µM)?
Answer: 0.63

Question: And the relative viability (NCI-H838; first compound 0.002 µM)?
Answer: 0.259

Question: What about the relative viability (NCI-H838; first compound 0.006325 µM) of the same compound?
Answer: 0.15

Question: What about the relative viability (NCI-H838; first compound 0.02 µM) of the same compound?
Answer: 0.106

Question: And the relative viability (NCI-H1993; first compound 0.0002 µM)?
Answer: 0.796

Question: And the relative viability (NCI-H1993; first compound 0.000632 µM)?
Answer: 0.824

Question: And the relative viability (NCI-H1993; first compound 0.002 µM)?
Answer: 0.627

Question: What about the relative viability (NCI-H1993; first compound 0.006325 µM) of the same compound?
Answer: 0.534

Question: What about the relative viability (NCI-H1993; first compound 0.02 µM) of the same compound?
Answer: 0.451

Question: What about the relative viability (HOP-62; first compound 0.0002 µM) of the same compound?
Answer: 0.828

Question: What about the relative viability (HOP-62; first compound 0.000632 µM) of the same compound?
Answer: 0.448

Question: What about the relative viability (HOP-62; first compound 0.02 µM) of the same compound?
Answer: 0.112

Question: What about the relative viability (NCI-H1355; first compound 0.0002 µM) of the same compound?
Answer: 0.933

Question: And the relative viability (NCI-H1355; first compound 0.000632 µM)?
Answer: 0.975

Question: What about the relative viability (NCI-H1355; first compound 0.002 µM) of the same compound?
Answer: 0.446

Question: And the relative viability (NCI-H1355; first compound 0.006325 µM)?
Answer: 0.289

Question: What about the relative viability (NCI-H1355; first compound 0.02 µM) of the same compound?
Answer: 0.21

Question: And the relative viability (NCI-H2347; first compound 0.0002 µM)?
Answer: 1.01

Question: And the relative viability (NCI-H2347; first compound 0.000632 µM)?
Answer: 1.05

Question: What about the relative viability (NCI-H2347; first compound 0.002 µM) of the same compound?
Answer: 0.839

Question: And the relative viability (NCI-H2347; first compound 0.006325 µM)?
Answer: 0.512

Question: And the relative viability (NCI-H2347; first compound 0.02 µM)?
Answer: 0.479

Question: And the relative viability (HARA; first compound 0.0002 µM)?
Answer: 0.517

Question: What about the relative viability (HARA; first compound 0.000632 µM) of the same compound?
Answer: 0.302

Question: What about the relative viability (HARA; first compound 0.006325 µM) of the same compound?
Answer: 0.0686

Question: What about the relative viability (HARA; first compound 0.02 µM) of the same compound?
Answer: 0.0783

Question: What about the relative viability (COR-L 105; first compound 0.0002 µM) of the same compound?
Answer: 0.369

Question: And the relative viability (COR-L 105; first compound 0.000632 µM)?
Answer: 0.277

Question: What about the relative viability (COR-L 105; first compound 0.002 µM) of the same compound?
Answer: 0.313

Question: What about the relative viability (COR-L 105; first compound 0.006325 µM) of the same compound?
Answer: 0.283

Question: And the relative viability (COR-L 105; first compound 0.02 µM)?
Answer: 0.268

Question: And the relative viability (NCI-H358; first compound 0.0002 µM)?
Answer: 0.426

Question: What about the relative viability (NCI-H358; first compound 0.000632 µM) of the same compound?
Answer: 0.357

Question: And the relative viability (NCI-H358; first compound 0.002 µM)?
Answer: 0.332

Question: What about the relative viability (NCI-H358; first compound 0.02 µM) of the same compound?
Answer: 0.149

Question: What about the relative viability (NCI-H1734; first compound 0.0002 µM) of the same compound?
Answer: 0.986

Question: And the relative viability (NCI-H1734; first compound 0.000632 µM)?
Answer: 0.549

Question: What about the relative viability (NCI-H1734; first compound 0.002 µM) of the same compound?
Answer: 0.429

Question: And the relative viability (NCI-H1734; first compound 0.006325 µM)?
Answer: 0.322

Question: What about the relative viability (NCI-H1734; first compound 0.02 µM) of the same compound?
Answer: 0.221
